The values below come from US10329292B2, “Substituted xanthine derivatives” (Boehringer Ingelheim International GmbH, priority 2017, dated 2019).

“Also recorded” adds a separate entry of the source.

For one test, the target named is T1, hERG channel (Homo sapiens, UniProt Q12809).
T1 construct: expressed in transfected cells
Put plainly: Assay B: Determination of hERG-inhibition (patch-clamp). In kind it is cell-based. Particulars: patch-clamp per Rast and Guth 2014. Here is the method: Assay B: Determination of hERG-Inhibition
hERG-channel inhibition was determined as described in Rast G, Guth B D, Solubility assessment and on-line exposure confirmation in a patch-clamp assay for hERG (human ether-a-go-go-related gene) potassium channel inhibition, J Pharmacol Toxicol Methods. 2014 September-October; 70(2):182-7.
On the technique in general: Block of hERG is tested as a sign of cardiac risk.

In a further test the target is T2, TRPC5 channel (Homo sapiens, UniProt Q9UL62).
T2 construct: expressed in transfected cells; host or cells: HEK293 TREx (inducible expression)
T2 sequence (Q9UL62 1-973): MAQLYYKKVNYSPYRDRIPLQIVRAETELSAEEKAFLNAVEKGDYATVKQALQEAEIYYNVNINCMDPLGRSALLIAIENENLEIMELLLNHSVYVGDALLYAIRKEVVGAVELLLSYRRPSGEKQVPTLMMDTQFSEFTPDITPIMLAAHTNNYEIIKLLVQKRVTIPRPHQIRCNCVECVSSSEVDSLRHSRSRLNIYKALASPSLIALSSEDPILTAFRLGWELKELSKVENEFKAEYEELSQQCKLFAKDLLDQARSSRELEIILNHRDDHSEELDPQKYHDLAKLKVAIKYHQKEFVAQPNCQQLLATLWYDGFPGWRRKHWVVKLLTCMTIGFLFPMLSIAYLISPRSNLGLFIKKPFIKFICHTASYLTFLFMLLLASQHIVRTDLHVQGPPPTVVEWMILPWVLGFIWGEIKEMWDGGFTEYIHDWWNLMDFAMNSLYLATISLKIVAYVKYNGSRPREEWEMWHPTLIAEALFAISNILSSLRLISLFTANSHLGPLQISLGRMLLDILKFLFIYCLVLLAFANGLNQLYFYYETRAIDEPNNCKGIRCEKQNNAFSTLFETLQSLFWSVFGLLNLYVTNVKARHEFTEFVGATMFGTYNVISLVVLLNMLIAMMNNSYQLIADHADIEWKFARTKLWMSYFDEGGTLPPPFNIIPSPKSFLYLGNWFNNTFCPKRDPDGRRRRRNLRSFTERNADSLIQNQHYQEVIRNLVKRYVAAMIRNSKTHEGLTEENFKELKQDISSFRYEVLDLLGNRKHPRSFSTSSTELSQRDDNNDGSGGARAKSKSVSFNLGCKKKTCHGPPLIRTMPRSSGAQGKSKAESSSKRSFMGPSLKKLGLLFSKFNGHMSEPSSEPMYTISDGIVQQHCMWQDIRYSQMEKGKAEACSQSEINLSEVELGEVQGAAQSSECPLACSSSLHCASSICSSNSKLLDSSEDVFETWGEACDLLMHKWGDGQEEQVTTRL
Kind of test: Assay A: Determination of TRPC5-inhibition (whole-cell patch clamp). In kind it is cell-based. Particulars: LaCl3-activated current. An excerpt:
Assay A: Determination of TRPC5-Inhibition
Patch clamp experiments permit the detection of currents through the TRPC5 channel in a cell line. In normal whole-cell patch clamp recordings, a glass electrode is brought into contact with a single cell and a high-resistance (gigaohm) seal is established with the cell membrane. The membrane is then ruptured to achieve the whole-cell configuration, permitting control of the voltage of the cell membrane and measurement of currents flowing across the membrane using the amplifier attached to the electrode and resulting in the replacement of cytoplasm with the pipette solution. A perfusion system permits control of the extracellular solution, including the addition of blockers and activators of the current. The current can be activated by including 1.4 μM free Ca2+ in the pipette (intracellular) solution, and 80 μM LaCl3 in the extracellular solution.
TRPC5 cells were induced 20-48 hours, removed from growth plates, and replated at low density (to attain good single-cell physical separation) on glass coverslips for measurement. In some cases, cells were grown in low density overnight on glass coverslips. Patch clamp recordings were made in the whole-cell mode with a holding potential of −40 mV. Every 5 seconds, a voltage ramp was applied from −120 to +100 mV, 400 ms in duration. Currents elicited were quantified at −80 mV and +80 mV. The internal solution consisted of 140 mM cesium aspartate, 10 mM HEDTA, 2 mM CaCl2, 2.27 mM MgCl2 and 10 mM HEPES, pH 7.2, with 1,400 nM calculated free Ca2+. The external solution consisted of 150 mM NaCl, 4.5 mM 15 KCl, 1 mM MgCl2, 2 mM CaCl2, 10 mM HEPES, 10 mM glucose, 1 mM EGTA, pH 7.4. Upon addition of LaCl3, TRPC5 current was induced only in TRPC5-expressing cells and not in parental HEK293 TREx cells. Removal of the LaCh stimulus causes most of the current to go away. Potential blockers were tested for ability to block both inward and outward currents in the continued presence of LaCl3.
IC50 of a compound of the invention was estimated by testing the compound 500 nM. […] Compounds blocking 50% or more at 500 nM are retested at multiple concentrations, and the % block is fitted by standard equations to determine IC50 accurately, using a ⅚ point concentration-response experiment.
(In patch-clamp work, channel activity is measured electrically.)

Setting [1] is: compounds of the present invention.
The mark [2] stands for this setting: compounds of the present invention, TRPC5-expressing HEK293 TREx cells.
Where [3] appears, read: compounds of WO2014/143799, TRPC5-expressing HEK293 TREx cells.

By IC50 is commonly meant the concentration at which inhibition is half-maximal. A high value points to a need for much substance.

T1 sequence (Q12809 whole entry): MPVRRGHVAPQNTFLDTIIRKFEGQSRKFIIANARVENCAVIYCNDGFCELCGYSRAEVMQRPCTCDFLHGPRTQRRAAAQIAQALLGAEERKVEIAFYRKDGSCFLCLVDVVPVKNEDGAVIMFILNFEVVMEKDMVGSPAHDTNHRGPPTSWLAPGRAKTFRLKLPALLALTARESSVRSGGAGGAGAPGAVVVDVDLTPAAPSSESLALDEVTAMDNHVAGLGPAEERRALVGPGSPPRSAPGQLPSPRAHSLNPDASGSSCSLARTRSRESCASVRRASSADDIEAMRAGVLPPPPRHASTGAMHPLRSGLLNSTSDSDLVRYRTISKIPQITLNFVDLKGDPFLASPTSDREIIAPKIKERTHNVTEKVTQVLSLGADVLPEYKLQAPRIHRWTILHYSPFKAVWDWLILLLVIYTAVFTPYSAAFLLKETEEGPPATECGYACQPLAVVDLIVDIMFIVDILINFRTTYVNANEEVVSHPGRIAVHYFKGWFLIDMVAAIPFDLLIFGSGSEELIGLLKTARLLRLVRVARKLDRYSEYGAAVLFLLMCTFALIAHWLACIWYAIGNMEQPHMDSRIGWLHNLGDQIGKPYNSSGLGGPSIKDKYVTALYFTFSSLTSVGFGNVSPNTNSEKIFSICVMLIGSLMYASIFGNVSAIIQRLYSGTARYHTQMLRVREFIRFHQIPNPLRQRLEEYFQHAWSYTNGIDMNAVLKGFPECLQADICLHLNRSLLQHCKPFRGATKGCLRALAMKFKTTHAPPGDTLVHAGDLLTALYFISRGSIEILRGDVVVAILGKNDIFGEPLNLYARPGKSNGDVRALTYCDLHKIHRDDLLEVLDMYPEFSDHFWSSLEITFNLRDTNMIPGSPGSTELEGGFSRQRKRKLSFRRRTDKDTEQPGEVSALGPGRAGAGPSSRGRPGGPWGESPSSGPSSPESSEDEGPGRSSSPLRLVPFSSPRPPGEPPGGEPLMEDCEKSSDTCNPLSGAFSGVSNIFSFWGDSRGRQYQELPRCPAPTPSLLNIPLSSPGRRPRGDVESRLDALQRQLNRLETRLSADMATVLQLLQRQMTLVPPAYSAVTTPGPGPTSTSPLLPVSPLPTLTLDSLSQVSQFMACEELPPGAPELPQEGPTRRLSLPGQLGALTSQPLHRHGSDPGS

In the case of `CC(C)n1c(=O)n(CCCO)c(=O)c2c1nc(-c1cccnc1OC[C@H]1CC1(F)F)n2Cc1ccc(F)cc1` (single isomer, unassigned) [Example 21], the IC50 was greater than 10 µM at hERG channel (setting [1]) and less than 0.01 µM at TRPC5 channel (setting [2]).
Taken in the same sequence, the figures for `CC(C)n1c(=O)n(CCCO)c(=O)c2c1nc(-c1cccnc1OC[C@@H]1CC1(F)F)n2Cc1ccc(F)cc1` (single isomer, unassigned) [Example 22] were greater than 10 µM and less than 0.01 µM.
Consider `Cn1c(=O)n(CCCO)c(=O)c2c1nc(Oc1cccc(Cl)c1)n2Cc1cccc(Cl)c1` [Compound ID 260 in WO2014/143799, reference compound], for which, at hERG channel (compounds of WO2014/143799), the “Assay B hERG inhibition” value is on record as “low μM range” and the IC50 came to 1.9 µM. At TRPC5 channel (setting [3]), the “Assay A TRPC5 inhibition” value is “potent TRPC5-inhibition” and the 50% inhibitory concentration (IC50) is less than 0.01 µM.
Turning to `COc1ccccc1-c1nc2c(c(=O)n(CCCO)c(=O)n2C)n1Cc1ccc(F)cc1` [Compound ID 415 in WO2014/143799, reference compound], the IC50 against hERG channel (compounds of WO2014/143799) is greater than 10 µM. Moreover, the “Assay A TRPC5 inhibition” value on TRPC5 channel (setting [3]) is reported as “agonism (activation); also recorded: Agonist”.
On to `CC(C)n1c(=O)n(CCCO)c(=O)c2c1nc(-c1cccnc1OCC1CC1)n2Cc1cc(F)cc(F)c1` [Example 1], for which the results for the IC50 against hERG channel (setting [1]) and on TRPC5 channel (setting [2]) were greater than 10 µM and less than 0.01 µM, respectively.
Consider `CC(C)n1c(=O)n(CCCO)c(=O)c2c1nc(-c1cccnc1OCC1CC1)n2Cc1ccc(C(F)(F)F)cc1` [Example 2], for which the results for the IC50 against hERG channel (setting [1]) and at TRPC5 channel (setting [2]) were 8.3 µM and less than 0.01 µM, respectively.
The like results for `CC(C)n1c(=O)n(CCCO)c(=O)c2c1nc(-c1cccnc1OCC1CC1)n2Cc1ccc(F)c(F)c1` [Example 3] were, in that order, greater than 10 µM and less than 0.01 µM.
For `Cc1ccc(Cn2c(-c3cccnc3OCC3CC3)nc3c2c(=O)n(CCCO)c(=O)n3C(C)C)cc1` [Example 4], the IC50 was greater than 10 µM against hERG channel (setting [1]) and less than 0.01 µM against TRPC5 channel (setting [2]).
The like results for `CC(C)n1c(=O)n(CCCO)c(=O)c2c1nc(-c1cccnc1OCC1CC1)n2Cc1ccc(Cl)cc1` [Example 5] were, in that order, greater than 10 µM and less than 0.01 µM.
For `CC(C)n1c(=O)n(CCCO)c(=O)c2c1nc(-c1cccnc1OCC1CC1)n2Cc1ccc(F)cc1` [Example 6], the IC50 at hERG channel (setting [1]) is greater than 10 µM; against TRPC5 channel (setting [2]), less than 0.01 µM.
The like results for `CC(C)n1c(=O)n(CCCO)c(=O)c2c1nc(-c1ccc(F)nc1OCC1CC1)n2Cc1ccc(F)cc1` [Example 7] were, in that order, greater than 10 µM and less than 0.01 µM.
The like results for `CC(C)n1c(=O)n(CCCO)c(=O)c2c1nc(-c1cccnc1OCC1CC1)n2Cc1ccc(Cl)cn1` [Example 8] were, in that order, greater than 10 µM and less than 0.01 µM.
The like results for `CC(C)n1c(=O)n(CCCO)c(=O)c2c1nc(-c1nccnc1OCC1CC1)n2Cc1ccccc1` [Example 9] were, in that order, greater than 10 µM and less than 0.01 µM.
In the case of `CC(C)n1c(=O)n(CCCO)c(=O)c2c1nc(-c1ccc(F)nc1OCC1CC1)n2Cc1ccccc1` [Example 10], the IC50 against hERG channel (setting [1]) is greater than 10 µM; at TRPC5 channel (setting [2]), less than 0.01 µM.
Taken in the same sequence, the figures for `CCn1c(=O)n(CCCO)c(=O)c2c1nc(-c1nccnc1OCC1CC1)n2Cc1ccccc1` [Example 11] were greater than 10 µM and less than 0.01 µM.
Taken in the same sequence, the figures for `Cn1c(=O)n(CCCO)c(=O)c2c1nc(-c1nccnc1OCC1CC1)n2Cc1ccc(Cl)cc1` [Example 12] were greater than 10 µM and less than 0.01 µM.
Taken in the same sequence, the figures for `Cc1ccc(-c2nc3c(c(=O)n(CCCO)c(=O)n3C(C)C)n2Cc2ccccc2)c(OCC2CC2)n1` [Example 13] were greater than 10 µM and less than 0.01 µM.
With `Cc1nc(OCC2CC2)c(-c2nc3c(c(=O)n(CCCO)c(=O)n3C(C)C)n2Cc2ccc(F)cc2)cc1F` [Example 14], the values for the concentration for half-maximal inhibition (IC50) on hERG channel (setting [1]) and against TRPC5 channel (setting [2]) were 5.8 µM and less than 0.01 µM, respectively.
Taken in the same sequence, the figures for `Cc1nc(OCC2CC2)c(-c2nc3c(c(=O)n(CCCO)c(=O)n3C(C)C)n2Cc2ccccc2)cc1F` [Example 15] were 5.8 µM and less than 0.01 µM.
The like results for `CC(C)n1c(=O)n(CCCO)c(=O)c2c1nc(-c1cc(F)cnc1OCC1CC1)n2Cc1ccccc1` [Example 16] were, in that order, greater than 10 µM and less than 0.01 µM.
Taken in the same sequence, the figures for `CC(C)n1c(=O)n(CCCO)c(=O)c2c1nc(-c1cc(F)cnc1OCC1CC1)n2Cc1ccc(F)cc1` [Example 17] were greater than 10 µM and less than 0.01 µM.
As for `CC(C)n1c(=O)n(CCCO)c(=O)c2c1nc(-c1cccnc1OCC1CC1)n2Cc1ccccc1` [Example 18], the values for the IC50 against hERG channel (setting [1]) and at TRPC5 channel (setting [2]) were greater than 10 µM and less than 0.01 µM, respectively.
As to `CC(C)n1c(=O)n(CCCO)c(=O)c2c1nc(-c1cccnc1OC[C@@H]1CC1(F)F)n2Cc1ccccc1` [Example 19], the IC50 against hERG channel (setting [1]) is greater than 10 µM; against TRPC5 channel (setting [2]), less than 0.01 µM.
Taken in the same sequence, the figures for `CC(C)n1c(=O)n(CCCO)c(=O)c2c1nc(-c1cccnc1OC[C@H]1CC1(F)F)n2Cc1ccccc1` [Example 20] were greater than 10 µM and less than 0.01 µM.
Taken in the same sequence, the figures for `CC(C)n1c(=O)n(CC[C@@H](C)O)c(=O)c2c1nc(-c1cccnc1OCC1CC1)n2Cc1ccccc1` [Example 23] were greater than 10 µM and less than 0.01 µM.
The like results for `CC(C)n1c(=O)n(CC[C@@H](C)O)c(=O)c2c1nc(-c1cccnc1OCC1CC1)n2Cc1ccc(F)cc1` [Example 24] were, in that order, greater than 10 µM and less than 0.01 µM.
As for `CC(C)n1c(=O)n(CC[C@@H](C)O)c(=O)c2c1nc(-c1cccnc1OCC1CC1)n2Cc1ccc(Cl)cc1` [Example 25], the IC50 was 7.6 µM against hERG channel (setting [1]) and less than 0.01 µM against TRPC5 channel (setting [2]).
